According to patent US8273553B2, “Production of growth hormone in serum-free cell culture medium for mammalian cells” (Ares Trading S.A., priority 2004, dated 2012):
Where two headings read alike, the source gives them in different places.

Legend:
[1] = test system: hGH expressing C127 cells; assay: rhGH productivity of hGH expressing C127 cells in roller bottles, DMEM supplemented with trace elements (Example 1); assay type: cell-based, murine; details: for average productivity increase compared to control: 10 μM continuously added to DMEM, production phase 14 days; for productivity increase at the assayed concentration (in words): 10 μM in DMEM; for % INCREASE OF PRODUCTIVITY: single ion in DMEM at growth medium concentration: Zn 1.50300, Cu 0.02560, Se 0.11400, Co 0.00840 μM; for productivity increase, amino acid added together with the metals: Zn 0.5 μM, Cu 0.02 μM, Ferric Citrate 4.8 μM plus Gln 4.8 mM or Cys 0.29 mM
Description: The addition of the different supplements assayed (metal solutions etc.) in different experiments was carried out directly on fresh culture medium.
Genetically modified C127 murine cells (ATCC CRL 1616) were used for the expression of the recombinant human growth hormone (rhGH). The vector is based on BPV69T comprising the pBR322 multiple cloning site and comprising 1.6 kb of the rhGH minigene under the control of mouse metallothionein-1 (MT-1) promoter. Cultures derived from one Working Cell Bank obtained from different rhGH production batches were used in the experiments.
Cell cultures were kept incubated at 36° C.±0.5° C. and 0.4 rpm in 2125 cm^2 roller bottles containing 375 mL±15 mL of culture medium or in 1700 cm cm^2 roller bottles containing 300 mL of culture medium.
Culture medium used for the rhGH production phase was DMEM with 4.5 g/L glucose buffered with sodium bicarbonate (3.7 g/L).
Measurement of rhGH in the culture medium was carried out daily by reverse-phase HPLC titration:
Chromatography conditions are: • Elution by gradient: starting with a mixture phase A/phase B 60/40 ending at phase A/phase B 20/80. Gradient complete in 5 minutes (slightly variable depending on instrumentation in use) • Injection volume 50 μliters • Detection: UV absorbance at 215 nm. • P Calibration curve: r-hGH standard at 10, 50, 100, 120 and 150 μg/ml
The r-hGH concentration of a sample is determined by comparison with standard r-hGH concentrations.
Productivity is expressed as mg of rhGH per roller bottle. Raw data are rhGH concentration in the harvest (as measured by HPLC) and total number of roller bottles harvested. Typically a roller bottle during harvest phase contains around 10^9 cells.

[2] = test system: r-hGH producing cells of working cell bank 15 (WCB15); assay: r-hGH productivity in six-well plates (P6 system), DMEM with additions (Example 2); assay type: cell-based; details: for average productivity, % of control: duplicate; for response μg/well/hrvst / response as % “−1−1−1”: Cr 2.5 nM, Ni 1 nM in DMEM, average of 14 harvests; for response as % “−1−1−1”: relative to no addition; for % increase of hGH productivity: 6-well system
Description: The experiments were carried out using the working cell bank 15 (WCB15), which is now in current use in normal production.
Scale-down screening experiments were carried out in six-well plates COSTAR P6 of treated CELLBIND polystyrene (CORNING catalogue No. 3335) supplied with 5 mL of culture medium per well. In this case P6 plates were seeded with cells taken from the subculture 3 (standard manufacturing process) to an approximate density of 5×10^5 viable cells/well and then incubated at 37° C., within controlled atmosphere of CO2 at 5%, with standard growth medium or under 13% CO2 when changing to DMEM production medium modified as per the specific experimental plan.
(§1) Measurement of r-hGH in the culture medium was carried out daily by the currently approved reverse-phase HPLC titration.
In other experiments, metal trace elements were added to the DMEM in three concentrations and tested for effects on r-hGH productivity in 6-well plates. Each concentration was tested in duplicate and the average value was calculated. In all cases the concerned salt was prepared as 1000× stock solution from which the corresponding aliquots were taken and added to the medium.

[3] = test system: r-hGH producing cells of working cell bank 15 (WCB15); assay type: cell-based; details: for Product. up to H14 / Product. up to H25: relative to control
Description: According to the approved work instructions, cell cultures were kept incubated at 36° C.±0.5° C. and 0.4 rpm in 1700 cm^2 roller bottles containing 400 mL±20 mL of culture medium.
as §1

[4] = test system: cell monolayer of rhGH-producing cultures; assay: peeling-off: detachment of the cell monolayer from the roller bottles; details: roller bottles with CDX, second part of harvest period
[5] = pH in a range of 6.5 to 8.5; cited from earlier work

O.O.[Ba+2].[Cl-].[Cl-] [Ba, Barium Chloride (BaCl2.2H2O)]
average productivity increase compared to control [1]: 1.1% | productivity increase at the assayed concentration (in words) [1]: Neither Barium nor Chromium showed productivity increase | average productivity, % of control ([2]; 1 nM in DMEM): 103.1% | average productivity, % of control ([2]; 10 nM in DMEM): 101.9% | average productivity, % of control ([2]; 100 nM in DMEM): 98.9%

O.O.O.O.O.O.O.O.O=S(=O)([O-])[O-].O=S(=O)([O-])[O-].O=S(=O)([O-])[O-].[Cd+2].[Cd+2].[Cd+2] [Cd, Cadmium Sulphate (CdSO4.8/3H2O)]
average productivity, % of control ([2]; 1 nM in DMEM): 100.8% | average productivity, % of control ([2]; 10 nM in DMEM): 103.6% | increase of productivity ([2]; 100 nM): 20% | average productivity, % of control ([2]; 100 nM in DMEM): 120.6% | increase in r-hGH productivity over the control ([3]; Cd 100 nM, roller bottles, two independent experiments): 12-15%

O.O.O.O.O.O.[Cl-].[Cl-].[Co+2] [Co, Cobalt Chloride (CoCl2.6H2O)]
average productivity increase compared to control [1]: 32.4% | rhGH productivity increase compared to control, continued induction ([1]; cobalt continuously added (10 μM)): 32.5% | rhGH productivity increase compared to control, intermittent induction ([1]; cobalt intermittently added (20 μM CoCl2.6H2O)): 9% | % INCREASE OF PRODUCTIVITY [1]: −3.20% | statistical analysis of effect on productivity (in words) ([2]; 2^3 factorial design, Co 5 mcrM): significant effect on productivity | response μg/well/hrvst ([2]; Co 5 mcrM): 272.1 μg/well/hrvst | response as % “−1−1−1” ([2]; Co 5 mcrM): 107.1% | Product. up to H14 ([3]; Co 1 mcrM added to DMEM): 107% | Product. up to H25 ([3]; Co 1 mcrM added to DMEM): 102% | Product. up to H14 ([3]; Co 2 mcrM added to DMEM): 110% | Product. up to H25 ([3]; Co 2 mcrM added to DMEM): 102% | Product. up to H14 ([3]; Co 5 mcrM added to DMEM): 113% | Product. up to H25 ([3]; Co 5 mcrM added to DMEM): 101% | Product. up to H14 ([3]; Co 10 mcrM added to DMEM): 117% | Product. up to H25 ([3]; Co 10 mcrM added to DMEM): 104%

O.O.O.O.O.O.O.O.O.O.O.O.O=S(=O)([O-])[O-].O=S(=O)([O-])[O-].[Cr+3].[K+] [Cr, Chromium Potassium Sulfate (K[Cr(SO6H4)2(H2O)2].6H2O)]
productivity increase at the assayed concentration (in words) [1]: Neither Barium nor Chromium showed productivity increase | average productivity, % of control ([2]; 1 nM in DMEM): 102.0% | average productivity, % of control ([2]; 10 nM in DMEM): 102.8% | average productivity, % of control ([2]; 100 nM in DMEM): 97.8% | response μg/well/hrvst ([2]; Co 5 mcrM): 253.6 μg/well/hrvst | response as % “−1−1−1” ([2]; Co 5 mcrM): 99.8%

O.O.O.O.O.O=S(=O)([O-])[O-].[Cu+2] [Cu, Copper Sulfate (CuSO4.5H2O)]
increase in productivity ([1]; Copper 0.02 μM in DMEM): 32.1%±9.4% | optimal supplementation concentration in DMEM ([1]; Zinc 0.5 μM and Ferric Citrate 4.8 μM constant): 25.6 nM | % INCREASE OF PRODUCTIVITY [1]: 37.50%

[Mn] [Mn]
average productivity, % of control ([2]; 1 nM in DMEM): 101.3% | average productivity, % of control ([2]; 10 nM in DMEM): 103.8% | average productivity, % of control ([2]; 100 nM in DMEM): 101.8%

O.O.O.O.O.O.O=[N+]([O-])[O-].O=[N+]([O-])[O-].[Ni+2] [Ni, Nickel Nitrate (Ni(NO3)2.6H2O)]
average productivity, % of control ([2]; 1 nM in DMEM): 103.1% | average productivity, % of control ([2]; 10 nM in DMEM): 102.1% | average productivity, % of control ([2]; 100 nM in DMEM): 98.6% | response μg/well/hrvst ([2]; Co 5 mcrM): 257.0 μg/well/hrvst | response as % “−1−1−1” ([2]; Co 5 mcrM): 101.2%

O.O.O.O.O.O=[Se]([O-])[O-].[Na+].[Na+] [Se, Sodium Selenite (Na2SeO3.5H2O)]
% INCREASE OF PRODUCTIVITY [1]: −3.10% | average productivity, % of control ([2]; 1 nM in DMEM): 101.5% | average productivity, % of control ([2]; 10 nM in DMEM): 102.4% | average productivity, % of control ([2]; 500 nM in DMEM): 101.4%

[Sn] [Sn]
average productivity, % of control ([2]; 1 nM in DMEM): 101.8% | average productivity, % of control ([2]; 10 nM in DMEM): 97.7% | average productivity, % of control ([2]; 100 nM in DMEM): 96.5% | effect of higher concentrations on productivity (in words) ([2]; highest tested concentrations): higher concentrations seem to reduce productivity

O.O.O.O.O.O.O.O=S(=O)([O-])[O-].[Zn+2] [Zn, Zinc sulfate (ZnSO4.7H2O)]
concentration at which maximum productivity level (plateau) is observed ([1]; Ferric Citrate 4.8 μM and Copper 0.025 μM constant): above 200 nM | increase in productivity ([1]; Zinc 0.5 μM in DMEM): 16.8%±1.6% | increase in productivity ([1]; Zinc 1.5 μM in DMEM): 10.3%±5.0% | productivity at plateau over the average control value ([1]; Zinc above 200 nM, Ferric Citrate 4.8 μM, Copper 0.025 μM): about 60% | % INCREASE OF PRODUCTIVITY [1]: 12.10%

N[C@@H](CSSC[C@H](N)C(=O)O)C(=O)O [cystine, L-cystine]
productivity increase, amino acid added together with the metals [1]: 69.9%

NC(=O)CC[C@H](N)C(=O)O [glutamine, L-glutamine]
productivity increase, amino acid added together with the metals [1]: 81.1%

Methyl-β-Cyclodextrin [CDX]
% increase of hGH productivity ([2]; CDX 25 mg/L, 0.02 mM): 2% | % increase of hGH productivity ([2]; CDX 50 mg/L, 0.04 mM): 4% | % increase of hGH productivity ([2]; CDX 80 mg/L, 0.07 mM): 5% | % increase of hGH productivity ([2]; CDX 116 mg/L, 0.1 mM): 7% | increase in productivity ([2]; CDX only (FIG. 19)): 7% | productivity relative to the control ([3]; CDX 116 mg/L (0.1 mM), Cadmium 0.1 micromolar, Cobalt 1 micromolar): 104% | peeling off in the roller bottles (visual observation) [4]: much less peeling off

hGH: single polypeptide chain of 191 amino acids having two disulfide bonds
solubility in aqueous buffers [5]: > 10 µg/mL
